# Test results as given in article PMC3334918, “Mutagenesis and Functional Studies with Succinate Dehydrogenase Inhibitors in the Wheat Pathogen Mycosphaerella graminicola” (PLoS ONE, 2012).
# Key:
# [1] = test system: M. graminicola WT (IPO323); assay: microbe, parasite or virus in culture; type: cell-based, Mycosphaerella graminicola; details: Zymoseptoria tritici; WT (IPO323), liquid culture growth, ±S.E. (triplicate); read-out: IC50 in vivo
# Method: (§1) To explore the sensitivity profiles conferred by amino acid substitutions at the cellular and mitochondrial level, we determined sensitivity towards 4 different compounds for 26 of the identified substitution types both in vivo using liquid culture growth (AE media) and in vitro using purified mitochondria and the succinate: Q0/DCPIP activity test (Table 3). […] Resistance factors (RF) were determined as the ratio IC50mutant/IC50WT. […] Qp site mutations are well known to influence SDH enzyme activity and stability upon catalysis, [13], [38], [41].
# (§2) Conidial cells were collected from 4 day old V8 agar plates (cultured at 18°C in the dark) using liquid AE and a cell spreader. Cell density was determined and cells re-suspended to a concentration of 5×10^5 cells ml^−1 in AE media. Sterile 96 wells microtiter plates with lids (Costar) were inoculated with 198 µl of this cell suspension (10^5 cells per well) and 2 µl of inhibitor (100× in DMSO). Final inhibitor concentrations were between 0.95 nM and 1 mM with uniform 4× dilution factor steps (11 inhibitor concentrations+1 DMSO control). Plates were incubated for 6 days at 19°C in the dark before cells were re-suspended and measured for growth (OD600 nm). IC50 values were determined by non linear curve fitting on the basis of measured OD values versus log inhibitor concentrations (GraphPad Prism 5.0 software).
# [2] = examination of supplemented AE agar plates for precipitate; type: physicochemical; details: AE agar plates supplemented with 150 µM (5×MSC), developed over time
# [3] = target: succinate dehydrogenase (SDH), WT (IPO323) (Zymoseptoria tritici (Mycosphaerella graminicola), UniProt F9X9V6+F9XG45+F9XH52); assay: in vitro succinate: Q0/DCPIP activity test, purified mitochondria; type: biochemical; details: read-out: IC50 in vitro, ±S.E. (triplicate)
# Method: as §1
# Strains were grown in 1 liter TSM40 units. Cultures were inoculated at 0.05 OD600 nm and grown on a reciprocal shaker (110 rpm, 22°C) for 5 days. Cells were harvested by vacuum filtration and disrupted in liquid nitrogen using a mortar and pestle. Resultant powder was re-suspended to 10% w/v in mitochondrial extraction buffer (10 mM KHPO4 pH7.2; 10 mM KCl, 10 mM MgCl2, 0.5 M sucrose, 0.2 mM EDTA, 2 mM PMSF). Extract was clarified by centrifugation (5,000 g, 4°C for 10 minutes, 2 times), intact mitochondria were then pelleted at 10,000 g for 20 minutes at 4°C. […] This volume was transferred to conical 1.5 ml tubes and re-centrifuged, 10,000 g for 10 minutes at 4°C. […] Mitochondrial suspensions were brought to a final concentration of 10 mg ml^−1 in extraction buffer and stored at −80°C until used.
# Mitochondrial suspensions were incubated at 30°C for 30 minutes in extraction buffer supplemented with 10 mM succinate prior to enzymatic measurements.
# A reaction plate was equilibrated for 10 minutes at 30°C before starting the reaction. DCPIP reduction was conducted at 30°C and monitored at 595 nm using a HTS7000 microtiterplate reader (Perkin Elmer). For calculations a molecular extinction coefficient of ε = 17 mM^−1 cm^−1 was used.
# Inhibitor concentrations ranged between 1 mM and 0.95 nM with uniform 4× dilution factor steps (11 inhibitor concentrations+DMSO control). 96 wells plates were pre equilibrated at reaction temperature (30°C) for 10 minutes before the reactions were started by the addition of 5 µl preactivated M. graminicola mitochondrial suspension. Calculated absorbance slopes (OD/hour) were used for IC50 calculations using Graphpad Prism 5.0 software non linear curve fitting against log inhibitor concentrations.
# [4] = test system: M. graminicola strain Cbx28 (SDHB_H267Y); assay: in vivo sensitivity, liquid culture growth (AE media); type: cell-based, Mycosphaerella graminicola; details: M. graminicola SDHB_H267Y; compound A: data not shown
# Method: as §1, §2
# [5] = test system: wild type IPO323 M. graminicola strain; type: cell-based, Mycosphaerella graminicola; details: minimal concentration to fully inhibit growth of WT IPO323, AE agar, 10^7 cells, 2 weeks at 20°C in the dark
# Text: (§3) Selection plates were produced after adding 1% of a 100× DMSO solution of the active ingredients to pre-melted AE-agar.
# [6] = test system: M. graminicola isolate IPO323; assay: UV mutagenesis and selection of resistant colonies on carboxamide amended AE agar; type: cell-based, Mycosphaerella graminicola
# Method: as §3
# Cells were harvested from 4 days old V8 agar plates and conidial cells were suspended in liquid AE. 10^7 cells were spread onto carboxamide amended AE agar plates and mutagenized using UV Stratalinker 2400 (Stratagene) with 75 mJ cm^−2 or 50 mJ cm^−2. […] Selection plates were incubated in the dark at 20°C for 14 days. Visible colonies were picked from the primary selection plate and re-grown on fresh selection media for 2 additional weeks under the same conditions.
# Sequence of succinate dehydrogenase (SDH), WT (IPO323) (F9XG45 entry or part of it): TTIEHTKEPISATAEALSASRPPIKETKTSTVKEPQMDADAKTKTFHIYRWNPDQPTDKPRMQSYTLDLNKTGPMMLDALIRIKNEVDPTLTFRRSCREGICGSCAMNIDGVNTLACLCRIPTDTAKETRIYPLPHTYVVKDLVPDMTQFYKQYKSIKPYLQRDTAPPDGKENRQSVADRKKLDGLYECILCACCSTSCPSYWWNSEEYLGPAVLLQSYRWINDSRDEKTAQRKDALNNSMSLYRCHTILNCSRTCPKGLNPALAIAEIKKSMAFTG
# Sequence of succinate dehydrogenase (SDH), WT (IPO323) (F9X9V6 entry or part of it): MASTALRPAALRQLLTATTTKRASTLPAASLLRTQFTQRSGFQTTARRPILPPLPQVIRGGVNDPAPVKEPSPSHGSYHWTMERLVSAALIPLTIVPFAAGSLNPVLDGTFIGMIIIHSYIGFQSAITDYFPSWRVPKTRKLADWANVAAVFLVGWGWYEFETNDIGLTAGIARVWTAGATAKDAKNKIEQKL
# Sequence of succinate dehydrogenase (SDH), WT (IPO323) (F9XH52 entry or part of it): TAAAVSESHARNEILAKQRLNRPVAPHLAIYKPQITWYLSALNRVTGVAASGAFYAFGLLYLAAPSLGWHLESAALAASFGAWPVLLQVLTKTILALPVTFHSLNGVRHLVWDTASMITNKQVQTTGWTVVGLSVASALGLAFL
SMILES,IC50 [1],precipitation in the media [2],IC50 [3],sensitivity / control of the SDHB_H267Y mutant compared to the WT [4],Minimal selective concentration (MSC) [5],"Frequency (of resistance development) ([6]; selection at MSC, UV treatment 50 mJ cm^−2)","Frequency (of resistance development) ([6]; selection at MSC, UV treatment 75 mJ cm^−2)","Frequency (of resistance development) ([6]; selection at […] MSC, UV treatment 50 mJ cm^−2)","Frequency (of resistance development) ([6]; selection at […] MSC, UV treatment 75 mJ cm^−2)"
O=C(Nc1ccccc1-c1ccc(Cl)cc1)c1cccnc1Cl [Boscalid],455 ± 47 nM,white precipitate,60 ± 1.8 nM,–,–,–,–,–,–
CC1=C(C(=O)Nc2ccccc2)SCCO1 [Carboxin],6470 ± 1080 nM,–,1160 ± 102 nM,–,–,–,–,–,–
O=C(NCCc1ncc(C(F)(F)F)cc1Cl)c1ccccc1C(F)(F)F [Fluopyram],584 ± 100 nM,–,44 ± 2.2 nM,hypersensitivity,–,–,–,–,–
CC(C)C1C2CCC1c1c(NC(=O)c3cn(C)cc3C(F)(F)F)cccc12 (centres unmarked) [compound A],–,–,–,better control,compound A 100 µM (MSC),1.4E-07,2.1E-07,2.1E-07,1.9E-07
